Assays:
Conditions in all cases: incubation time: 72 h
[1] = test system: CAL-148; assay: normalised viability (% of control), CellTiter-Blue; higher = more viable cells (about 100 = DMSO control)
Protocol: (§1)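 DSRT, CellTiter-Blue viability, 72 h incubation. Signal is normalised to DMSO and benzethonium chloride controls. Value is the normalised response at dose 6.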

[2] = test system: CAL-51; assay: as above
Protocol: as §1

[3] = test system: CAL-85-1; assay: as above
Protocol: as §1

[4] = test system: DU-4475; assay: as above
Protocol: as §1

[5] = test system: HDQ-P1; assay: as above
Protocol: as §1

[6] = test system: MDA-MB-453; assay: as above
Protocol: as §1

[7] = test system: BT-474; assay: normalised response (% of control), CellTox Green; higher = less cell death (100 = DMSO, 0 = benzethonium chloride kill control)
Procedure, shortened: (§2)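 Breast cancer cell lines (20 µl suspension) were seeded into 384-well plates holding compound at 5 concentrations in 10-fold steps over a compound-specific 10,000-fold range, then incubated 72 h. CellTox Green fluorescence (485/520 nm) was read first, then CellTiter-Glo luminescence after 10 min at room temperature. Each plate was normalised to 0.1 % DMSO (100) and a positive kill control (0). Each value is the normalised signal at a single concentration of the series.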

[8] = test system: BT-549; assay: as above
Procedure, shortened: as §2

[9] = test system: CAL-120; assay: as above
Procedure, shortened: as §2

[10] = test system: CAL-148; assay: as above
Procedure, shortened: as §2

[11] = test system: CAL-51; assay: as above
Procedure, shortened: as §2

[12] = test system: CAL-85-1; assay: as above
Procedure, shortened: as §2

[13] = test system: DU-4475; assay: as above
Procedure, shortened: as §2

[14] = test system: HCC1143; assay: as above
Procedure, shortened: as §2

[15] = test system: HCC1599; assay: as above
Procedure, shortened: as §2

[16] = test system: HCC1937; assay: as above
Procedure, shortened: as §2

[17] = test system: HDQ-P1; assay: as above
Procedure, shortened: as §2

[18] = test system: Hs578T; assay: as above
Procedure, shortened: as §2

[19] = test system: MCF-10A; assay: as above
Procedure, shortened: as §2

[20] = test system: MDA-MB-231; assay: as above
Procedure, shortened: as §2

[21] = test system: MDA-MB-436; assay: as above
Procedure, shortened: as §2

[22] = test system: MDA-MB-453; assay: as above
Procedure, shortened: as §2

[23] = test system: MDA-MB-468; assay: as above
Procedure, shortened: as §2

[24] = test system: MFM-223; assay: as above
Procedure, shortened: as §2

[25] = test system: BT-474; assay: normalised response (% of control), CellTiter-Glo; higher = more viable cells (100 = DMSO, 0 = benzethonium chloride kill control)
Protocol: (§3)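 DSRT, 72 h incubation, CellTox Green / CellTiter-Glo readout. Signal is normalised to DMSO and benzethonium chloride controls. Value is the normalised response at the highest dose.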

[26] = test system: BT-549; assay: as above
Protocol: as §3

[27] = test system: CAL-120; assay: as above
Protocol: as §3

[28] = test system: CAL-148; assay: as above
Protocol: as §3

[29] = test system: CAL-51; assay: as above
Protocol: as §3

[30] = test system: CAL-85-1; assay: as above
Protocol: as §3

[31] = test system: DU-4475; assay: as above
Protocol: as §3

[32] = test system: HCC1143; assay: as above
Protocol: as §3

[33] = test system: HCC1599; assay: as above
Protocol: as §3

[34] = test system: HCC1937; assay: as above
Protocol: as §3

[35] = test system: HDQ-P1; assay: as above
Protocol: as §3

[36] = test system: Hs578T; assay: as above
Protocol: as §3

[37] = test system: MCF-10A; assay: as above
Protocol: as §3

[38] = test system: MDA-MB-231; assay: as above
Protocol: as §3

[39] = test system: MDA-MB-436; assay: as above
Protocol: as §3

[40] = test system: MDA-MB-453; assay: as above
Protocol: as §3

[41] = test system: MDA-MB-468; assay: as above
Protocol: as §3

[42] = test system: MFM-223; assay: as above
Protocol: as §3

[43] = test system: SK-BR-3; assay: as above
Protocol: as §3

CCN(CCCOc1ccc2c(Nc3cc(CC(=O)Nc4cccc(F)c4)[nH]n3)ncnc2c1)CCOP(=O)(O)O [Barasertib] (30 nM)
normalised viability [1]: 23.7% | normalised viability [2]: 72% | normalised viability [3]: 77.7% | normalised viability [4]: 85.7% | normalised viability [5]: 46% | normalised viability [6]: 67.6%

Oc1nc(-c2ccc(C(F)(F)F)cc2)nc2c1CSCC2 [XAV-939] (300 nM)
normalised viability [1]: 93.3% | normalised viability [2]: 99.3% | normalised viability [3]: 89.2% | normalised viability [4]: 116% | normalised viability [5]: 112% | normalised viability [6]: 93.8%

CCC1(c2ccc(N)cc2)CCC(=O)NC1=O (configuration not stated) [Aminoglutethimide] (300 nM)
normalised viability [1]: 104% | normalised viability [2]: 84.8% | normalised viability [3]: 92.9% | normalised viability [4]: 93.4% | normalised viability [5]: 72.9% | normalised viability [6]: 89.6%

CC(=O)Nc1ccc(C(=O)Nc2ccccc2N)cc1 [CI-994] (30 nM)
normalised viability [1]: 92.8% | normalised viability [2]: 98.3% | normalised viability [3]: 104% | normalised viability [4]: 85.6% | normalised viability [5]: 100% | normalised viability [6]: 102%

NC(=O)Nc1cc(-c2cccc(F)c2)sc1C(=O)N[C@H]1CCCNC1 [AZD 7762] (30 nM)
normalised viability [1]: 93.7% | normalised viability [2]: 103% | normalised viability [3]: 99.5% | normalised viability [4]: 99.8% | normalised viability [5]: 93.9% | normalised viability [6]: 110%

Cn1c(Nc2ccc(C(F)(F)F)cc2)nc2cc(Oc3ccnc(-c4ncc(C(F)(F)F)[nH]4)c3)ccc21 [RAF265] (30 nM)
normalised viability [1]: 86.2% | normalised viability [2]: 89.8% | normalised viability [3]: 88.9% | normalised viability [4]: 111% | normalised viability [5]: 51.7% | normalised viability [6]: 88.3%

O=C1CCC(N2C(=O)c3ccccc3C2=O)C(=O)N1 (configuration not stated) [Thalidomide] (300 nM)
normalised viability [1]: 117% | normalised viability [2]: 88.4% | normalised viability [3]: 105% | normalised viability [4]: 99.6% | normalised viability [5]: 80.2% | normalised viability [6]: 103%

C[C@@H](Oc1cc(-c2cnn(C3CCNCC3)c2)cnc1N)c1c(Cl)ccc(F)c1Cl [Crizotinib] (300 nM)
normalised viability [1]: 101% | normalised viability [2]: 99.7% | normalised viability [3]: 92% | normalised viability [4]: 112% | normalised viability [5]: 36.5% | normalised viability [6]: 71.1%

Cc1ccc(C(=O)N(CCCN)[C@@H](c2oc3cc(Cl)ccc3c(=O)c2Cc2ccccc2)C(C)C)cc1 (30 nM)
normalised viability [1]: 18.3% | normalised viability [2]: 26.8% | normalised viability [3]: 33.3% | normalised viability [4]: 24.3% | normalised viability [5]: 74% | normalised viability [6]: 24.8%

COc1cc([C@@H]2c3cc4c(cc3[C@@H](O[C@@H]3O[C@@H]5CO[C@@H](C)O[C@H]5[C@H](O)[C@H]3O)[C@H]3COC(=O)[C@H]23)OCO4)cc(OC)c1O [Etoposide] (300 nM)
normalised viability [1]: 59.4% | normalised viability [2]: 59% | normalised viability [3]: 98.9% | normalised viability [4]: 45.6% | normalised viability [5]: 77.3% | normalised viability [6]: 104%

COc1cc2nccc(Oc3ccc(NC(=O)C4(C(=O)Nc5ccc(F)cc5)CC4)cc3)c2cc1OC [Cabozantinib] (30 nM)
normalised viability [1]: 111% | normalised viability [2]: 102% | normalised viability [3]: 85.5% | normalised viability [4]: 96.1% | normalised viability [5]: 62.5% | normalised viability [6]: 96.5%

NCC(=O)CCC(=O)O [Aminolevulinic acid] (300 nM)
normalised viability [1]: 113% | normalised viability [2]: 102% | normalised viability [3]: 91.4% | normalised viability [4]: 91.8% | normalised viability [5]: 90% | normalised viability [6]: 117%

CC(C)Cn1cnc2c(N)nc3ccccc3c21 [Imiquimod] (300 nM)
normalised viability [1]: 96.5% | normalised viability [2]: 97.5% | normalised viability [3]: 102% | normalised viability [4]: 80.5% | normalised viability [5]: 75.3% | normalised viability [6]: 103%

O=P1(NCCCl)OCCCN1CCCl (configuration not stated) [Ifosfamide] (300 nM)
normalised viability [1]: 109% | normalised viability [2]: 108% | normalised viability [3]: 97.1% | normalised viability [4]: 78.1% | normalised viability [5]: 85.1% | normalised viability [6]: 110%

CN[C@@H]1C[C@H]2O[C@@](C)([C@@H]1OC)n1c3ccccc3c3c4c(c5c6ccccc6n2c5c31)C(=O)N[C@H]4O [UCN-01] (300 nM)
normalised viability [1]: 87% | normalised viability [2]: 31.2% | normalised viability [3]: 41.8% | normalised viability [4]: 37.6% | normalised viability [5]: 26.2% | normalised viability [6]: 38.4%

Clc1ccc(Nc2nnc(Cc3ccncc3)c3ccccc23)cc1 [Vatalanib] (300 nM)
normalised viability [1]: 88.5% | normalised viability [2]: 98.3% | normalised viability [3]: 94.6% | normalised viability [4]: 95% | normalised viability [5]: 78.7% | normalised viability [6]: 105%

CN(N=O)C(=O)N[C@@H](C=O)[C@@H](O)[C@H](O)[C@H](O)CO [Streptozocin] (300 nM)
normalised viability [1]: 107% | normalised viability [2]: 108% | normalised viability [3]: 106% | normalised viability [4]: 97.2% | normalised viability [5]: 85.4% | normalised viability [6]: 102%

N.N.[Cl][Pt][Cl] [Cisplatin] (300 nM)
normalised viability [1]: 104% | normalised viability [2]: 108% | normalised viability [3]: 99.5% | normalised viability [4]: 93.6% | normalised viability [5]: 78.9% | normalised viability [6]: 107%

Cc1ccc(C(=O)Nc2ccc(CN3CCN(C)CC3)c(C(F)(F)F)c2)cc1C#Cc1cnc2cccnn12 [Ponatinib] (30 nM)
normalised viability [1]: 106% | normalised viability [2]: 86.3% | normalised viability [3]: 90% | normalised viability [4]: 81.4% | normalised viability [5]: 97% | normalised viability [6]: 85.3%

CO[C@H]1/C=C\C=C(/C)C(=O)NC2=CC(=O)C(NCCN(C)C)=C(C[C@@H](C)C[C@H](OC)[C@H](O)[C@@H](C)/C=C(\C)[C@@H]1OC(N)=O)C2=O [Alvespimycin] (30 nM)
normalised viability [1]: 48% | normalised viability [2]: 63.5% | normalised viability [3]: 62.8% | normalised viability [4]: 1.87% | normalised viability [5]: 44.2% | normalised viability [6]: 7.17%

NC(=O)Nc1cc(-c2cccc(F)c2)sc1C(=O)N[C@H]1CCCNC1 [AZD7762] (1000 nM)
normalised response [7]: 91.9% | normalised response [8]: 94.3% | normalised response [9]: 91.8% | normalised response [10]: 87.1% | normalised response [11]: 14.1% | normalised response [12]: -20.6% | normalised response [13]: 99.9% | normalised response [14]: 103% | normalised response [15]: 98% | normalised response [16]: 65.8% | normalised response [17]: 90.3% | normalised response [18]: 40.7% | normalised response [19]: 90.8% | normalised response [20]: 48.5% | normalised response [21]: 84.9% | normalised response [22]: 87% | normalised response [23]: 75.8% | normalised response [24]: 95.8% | normalised response [25]: 43% | normalised response [26]: 21.2% | normalised response [27]: 55.7% | normalised response [28]: 106% | normalised response [29]: 45.3% | normalised response [30]: 15.2% | normalised response [31]: 89.3% | normalised response [32]: 23.7% | normalised response [33]: 10.2% | normalised response [34]: 26.4% | normalised response [35]: 28% | normalised response [36]: 22.1% | normalised response [37]: 31.1% | normalised response [38]: 32% | normalised response [39]: 28.8% | normalised response [40]: 40.8% | normalised response [41]: 31.7% | normalised response [42]: 64.2% | normalised response [43]: 12%

Reference: the supplement of paper PMC4862054
